A short description of series [1]: Growth inhibition of in human myeloma cells. Type of series: functional, cell-based.
Series [2] relates to HL-60. Description: Antitumor activity against human HL60 cells xenografted in nude mouse assessed as reduction in tumor size at 75 mg/kg, ip bid for 13 days. Further details: scale not given: the % may be the effect or the level left. Type of series: functional, organism-based. A general note: In xenograft studies the graft and the host belong to different species.
Series [3] deals with HCT-116. Description: Antitumor activity against human HCT116 cells xenografted in nude mouse assessed as reduction in tumor size at 2 mg/kg/hr. The series is classed as functional, organism-based. The arrangement: scale not given: the % may be the effect or the level left.
In series [4] the target is Aurora kinase C (Homo sapiens, UniProt Q9UQB9). As to the kind of experiment: Inhibition of Aurora C kinase (unknown origin).
Chain of Aurora kinase C (Q9UQB9 whole entry): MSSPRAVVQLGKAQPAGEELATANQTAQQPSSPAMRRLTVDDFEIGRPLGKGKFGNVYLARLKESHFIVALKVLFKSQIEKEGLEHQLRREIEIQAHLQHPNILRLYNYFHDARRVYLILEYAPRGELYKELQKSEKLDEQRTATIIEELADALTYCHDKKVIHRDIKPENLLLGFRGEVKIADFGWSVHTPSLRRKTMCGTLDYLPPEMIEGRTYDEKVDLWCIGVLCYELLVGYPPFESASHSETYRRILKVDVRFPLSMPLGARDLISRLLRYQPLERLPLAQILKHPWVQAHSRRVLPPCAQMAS
In series [5] the target is Aurora kinase B (Homo sapiens, UniProt Q96GD4). Description: Inhibition of recombinant aurora B (unknown origin).
Chain of Aurora kinase B (Q96GD4 whole entry): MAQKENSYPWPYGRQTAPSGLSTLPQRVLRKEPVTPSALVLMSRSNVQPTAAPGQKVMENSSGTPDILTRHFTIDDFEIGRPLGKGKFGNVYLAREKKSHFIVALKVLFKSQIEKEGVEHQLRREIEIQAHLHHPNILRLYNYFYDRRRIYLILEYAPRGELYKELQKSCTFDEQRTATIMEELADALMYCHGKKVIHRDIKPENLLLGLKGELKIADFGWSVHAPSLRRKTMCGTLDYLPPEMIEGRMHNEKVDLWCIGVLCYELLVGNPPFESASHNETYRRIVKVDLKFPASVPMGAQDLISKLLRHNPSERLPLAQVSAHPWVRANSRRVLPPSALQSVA
Series [6] is described as follows: Oral bioavailability in fasted mouse at 5 mg/kg administered as single dose by orogastric gavage by LC-MS/MS analysis. The series is classed as ADME, organism-based. The conditions noted are these: in vivo.
Series [7] can be described thus: Half life in fasted mouse at 5 mg/kg administered as single dose by orogastric gavage by LC-MS/MS analysis. Type of series: ADME, organism-based. To be noted: in vivo, po.
Series [8] in a line: Oral bioavailability in fasted rat at 5 mg/kg administered as single dose by orogastric gavage by LC-MS/MS analysis. The series is classed as ADME, organism-based. The conditions noted are these: in vivo.
The nature of series [9]: Half life in fasted rat at 5 mg/kg administered as single dose by orogastric gavage by LC-MS/MS analysis. To be noted: in vivo, po. The series is classed as ADME, organism-based.
Series [10] is described as follows: Oral bioavailability in fasted dog at 2 mg/kg administered as single dose by orogastric gavage by LC-MS/MS analysis. The series is classed as ADME, organism-based, Canis lupus familiaris. To be noted: in vivo.
Series [11] in a line: Half life in fasted dog at 2 mg/kg administered as single dose by orogastric gavage by LC-MS/MS analysis. The series is classed as ADME, organism-based, Canis lupus familiaris. To be noted: in vivo, po.
A short description of series [12]: Oral bioavailability in fasted monkey at 2 mg/kg administered as single dose by orogastric gavage by LC-MS/MS analysis. The series is classed as ADME, organism-based, Macaca mulatta. To be noted: rhesus monkey, in vivo.
A short description of series [13]: Half life in fasted monkey at 2 mg/kg administered as single dose by orogastric gavage by LC-MS/MS analysis. Type of series: ADME, organism-based, Macaca mulatta. The conditions noted are these: rhesus monkey, in vivo, po.
A short description of series [14]: Suppression of cell mitosis in human multiple myeloma cells. The series is classed as functional.
Series [15] concerns MM1.S. Description: Antitumor activity against human MM1S cells xenografted in gamma-irradiated CB17 SCID mouse assessed as inhibition of tumor growth at 15 mg/kg, po dosed daily for 21 days. Type of series: functional. To be noted: light or radiation study, 504 h, read-out: TGI.
Series [16] has as its system MM1.S. Description: Antitumor activity against human MM1S cells xenografted in gamma-irradiated CB17 SCID mouse assessed as inhibition of tumor growth at 30 mg/kg, po dosed daily for 21 days. The series is classed as functional. The conditions noted are these: light or radiation study, 504 h, read-out: TGI.
For series [17], the target named is Aurora kinase A (Homo sapiens, UniProt O14965). Description: Inhibition of recombinant aurora 2 (unknown origin) expressed in Sf21 insect cells incubated for 60 mins using [biotin LRRWSLGLRRWSLGLRRWSLGLRRWSLG substrate and [gamma33P]ATP by beta plate counting method.
Chain of Aurora kinase A (O14965 whole entry): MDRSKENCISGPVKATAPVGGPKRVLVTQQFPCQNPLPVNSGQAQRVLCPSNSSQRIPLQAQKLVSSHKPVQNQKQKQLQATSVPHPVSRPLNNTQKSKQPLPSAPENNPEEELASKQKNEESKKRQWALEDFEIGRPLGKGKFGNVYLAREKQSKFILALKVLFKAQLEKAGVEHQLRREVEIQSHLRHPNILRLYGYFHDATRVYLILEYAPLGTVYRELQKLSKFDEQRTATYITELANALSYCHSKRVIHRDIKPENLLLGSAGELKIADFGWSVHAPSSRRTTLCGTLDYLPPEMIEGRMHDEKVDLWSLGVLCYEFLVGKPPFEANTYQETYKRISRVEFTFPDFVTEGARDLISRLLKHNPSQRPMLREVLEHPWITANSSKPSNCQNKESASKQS
Series [18] concerns HCC1143. As to the kind of experiment: Antiproliferation activity against human HCC1143 cells assessed as inhibition of cell proliferation. Type of series: functional, cell-based.
For series [19], the system named is MCF7. Description: Antiproliferation activity against human MCF7 cells assessed as inhibition of cell proliferation. The series is classed as functional, cell-based.
Series [20] relates to HCC1806. As to the kind of experiment: Antiproliferation activity against human HCC1806 cells assessed as inhibition of cell proliferation. Type of series: functional, cell-based.
In series [21] the test system is AU565. As to the kind of experiment: Antiproliferation activity against human AU565 cells assessed as inhibition of cell proliferation. Type of series: functional, cell-based.
In series [22] the test system is CAL-85-1. As to the kind of experiment: Antiproliferation activity against human CAL851 cells assessed as inhibition of cell proliferation. Type of series: functional, cell-based.
Series [23] in a line: Plasma concentration in F344/N Jcl-rnu rat xenografted with luciferase expressing human HeLa cells at 16 mg/kg, po BID for 2 days. Type of series: ADME, organism-based.
Series [24] can be described thus: Plasma concentration in F344/N Jcl-rnu rat xenografted with luciferase expressing human HeLa cells at 32 mg/kg, po BID for 2 days. The series is classed as ADME, organism-based.
In series [25] the test system is HCT-116. As to the kind of experiment: Antitumor activity against human HCT116 cells xenografted in SCID mouse assessed as reduction in tumor bulk at 15 mg/kg, po bid for 12 days relative to untreated control. The series is classed as functional.
Series [26] deals with HCT-116. Description: Antitumor activity against human HCT116 cells xenografted in SCID mouse assessed as reduction in tumor bulk at 30 mg/kg, po bid for 12 days relative to untreated control. Type of series: functional.
Series [27] concerns SW48. Description: Antitumor activity against human SW48 cells xenografted in nude rat assessed as reduction in tumor growth at 15 mg/kg, po administered twice daily for 2 days per week measured on day 10 relative to untreated control. Type of series: functional.
The subject of series [28] is SW48. Description: Antitumor activity against human SW48 cells xenografted in nude rat assessed as reduction in tumor growth at 45 mg/kg, po administered twice daily for 2 days per week measured on day 10 relative to untreated control. Type of series: functional.
The test system of series [29] is SW48. Description: Antitumor activity against human SW48 cells xenografted in nude rat assessed as reduction in tumor growth at 15 mg/kg, po administered twice daily for 2 days per week for 3 weeks and measured on day 27 relative to untreated control. The series is classed as functional.
The subject of series [30] is SW48. Description: Antitumor activity against human SW48 cells xenografted in nude rat assessed as reduction in tumor growth at 45 mg/kg, po administered twice daily for 2 days per week for 3 weeks and measured on day 27 relative to untreated control. The series is classed as functional.
The nature of series [31]: Growth inhibition of in human QGP1 cells incubated for 72 hrs. Type of series: functional, cell-based. The conditions noted are these: QGP-1, 72 h.
Series [32] is described as follows: Growth inhibition of in human BON1 cells incubated for 72 hrs. The series is classed as functional, cell-based.
A short description of series [33]: Growth inhibition of in human MIP101 cells incubated for 72 hrs. The series is classed as functional, cell-based.
Series [34] concerns HCT-116. As to the kind of experiment: Antitumor activity against human HCT116 cells xenografted in mouse assessed as inhibition of tumor growth at 15 mg/kg. The series is classed as functional. To be noted: read-out: TGI.
Series [35] has as its system HCT-116. Description: Antitumor activity against human HCT116 cells xenografted in mouse assessed as inhibition of tumor growth at 20 mg/kg. Type of series: functional. To be noted: read-out: TGI.
The nature of series [36]: Half life in tumor of mouse xenografted with human HCT116 cells at 15 to 20 mg/kg. Type of series: ADME, organism-based, Neoplasm.
Series [37] relates to HCT-116. Description: Antitumor activity against human HCT116 cells xenografted in mouse assessed as inhibition of tumor growth at 15 to 60 mg/kg, po. The series is classed as functional.

The IC50 is the concentration that gives 50% inhibition. A word on the half-life: it is the time in which the quantity being followed falls by half. As a reminder, the T/C is the ratio of treated to control. Broadly, the TGI is how far tumour growth fell short of that in controls.

The molecule `Cc1cc(Nc2cc(N3CCN(C)CC3)nc(/C=C/c3ccccc3)n2)n[nH]1` [ENMD-2076] showed an IC50 in [1] of 2990 to 7060 nM.
For the molecule `Cc1cc(Nc2cc(N3CCN(C)CC3)nc(Sc3ccc(NC(=O)C4CC4)cc3)n2)n[nH]1`, the values for the Activity in series [2] and in [3] were 98% and 56%, respectively.
On to `Cc1csc(-c2nnc(Nc3ccc(Oc4ncccc4-c4ccnc(N)n4)cc3)c3ccccc23)c1` [AMG-900], for which the results for the IC50 in [4] and in [5] were 1 nM and 4 nM, respectively. Moreover, the bioavailability in series [6], in [8], in series [10] and in series [12] was 31 to 107% throughout. The half-life in series [7], in series [9], in series [11] and in [13] was 0.6 to 2.4 h each time.
For the molecule `COc1cc(Nc2ncc3c(n2)-c2ccc(Cl)cc2C(c2c(F)cccc2OC)=NC3)ccc1C(=O)O` [ALISERTIB], the IC50 in series [14] was 3 to 1710 nM. Also, the inhibition in vivo at 15 mg/kg in series [15] was determined as 42%. In addition, the inhibition in vivo at 30 mg/kg in series [16] came to 80%.
On to `COc1cc2c(Nc3ccc(C(=O)Nc4ccccc4)cc3)ncnc2cc1O`, for which the half-inhibitory concentration (IC50) in series [17] worked out at 60 nM; in series [5] it was 41 nM.
For `O=C(O)[C@]1(Cc2cccc(Nc3nccs3)n2)CC[C@@H](Oc2cccc(Cl)c2F)CC1` [MK-5108], the IC50 in series [18] was 420 nM; in [19], 520 nM; in [20] it was 560 nM; in series [21], 450 nM; in [22] it was 740 nM. Further, the concentration at 48 h came out at 1.7 µM in series [23] and 4.4 µM in series [24]. For the same molecule, the T/C in [25] is 10%; in series [26], 6%; in [27] it was 35%; in series [28], 7%; in series [29] it was 58%; in [30] it was 32%.
As for `COc1cc2c(Nc3ccc(NC(=O)c4ccccc4)cc3)ncnc2cc1OCCCN1CCOCC1`, the IC50 in series [31] stood at 900 nM; in [32] it was 3000 nM; in series [33] it was 3000 nM.
`O=C(Nc1c[nH]nc1-c1nc2ccc(CN3CCOCC3)cc2[nH]1)NC1CC1` [AT-9283]: the inhibition in vivo at 15 mg/kg in series [34] was 67%. Further, the inhibition in vivo at 20 mg/kg in series [35] is 76%. The molecule also gave a half-life in series [36] of 2.5 h.
In the case of `CCc1cccc(CC)c1NC(=O)N1Cc2[nH]nc(NC(=O)c3ccc(N4CCN(C)CC4)cc3)c2C1` [PHA-680632], in series [37], the TGI is on record as 70%.

Values taken from ChEMBL document CHEMBL4265875, “A comprehensive review on Aurora kinase: Small molecule inhibitors and clinical trial studies” (Eur J Med Chem, 2017).
